Test results taken from PMC8909834, “An Orally Bioavailable and Highly Efficacious Inhibitor of CDK9/FLT3 for the Treatment of Acute Myeloid Leukemia” (Cancers, 2022).

Legend:
Experiment in all cases: Kinase Hotspot radiolabel assay
Type in all cases: biochemical
Conditions in all cases: read-out: % Residual Activity
ALK1/ACVRL1 = biological target: T1, ALK1/ACVRL1 (Homo sapiens, UniProt P37023)
T1 construct: purchased Reaction Biology Corporation (Kinase HotSpot)
Summary of the method: (§1)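 Inhibition measured by a radiolabel Hotspot kinase assay as part of a 369-kinase specificity panel, with the compound at 1 µM. Kinases inhibited by more than 90% went on to Ki determination.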

ALK5/TGFBR1 = biological target: T2, ALK5/TGFBR1 (Homo sapiens, UniProt P36897)
T2 construct: purchased Reaction Biology Corporation (Kinase HotSpot)
Summary of the method: as §1

ALK6/BMPR1B = biological target: T3, ALK6/BMPR1B (Homo sapiens, UniProt O00238)
T3 construct: purchased Reaction Biology Corporation (Kinase HotSpot)
Summary of the method: as §1

CDK3/cyclin E = biological target: T4, CDK3/cyclin E (Homo sapiens, UniProt Q00526)
T4 construct: purchased Reaction Biology Corporation (Kinase HotSpot)
Summary of the method: as §1

CDK6/cyclin D1 = biological target: T5, CDK6/cyclin D1 (Homo sapiens, UniProt Q00534)
T5 construct: purchased Reaction Biology Corporation (Kinase HotSpot)
Summary of the method: as §1

DYRK1B = biological target: T6, DYRK1B (Homo sapiens, UniProt Q9Y463)
T6 construct: purchased Reaction Biology Corporation (Kinase HotSpot)
Summary of the method: as §1

Haspin = biological target: T7, Haspin (Homo sapiens, UniProt Q8TF76)
T7 construct: purchased Reaction Biology Corporation (Kinase HotSpot)
Summary of the method: as §1

IRAK4 = biological target: T8, IRAK4 (Homo sapiens, UniProt Q9NWZ3)
T8 construct: purchased Reaction Biology Corporation (Kinase HotSpot)
Summary of the method: as §1

KDR/VEGFR2 = biological target: T9, KDR/VEGFR2 (Homo sapiens, UniProt P35968)
T9 construct: purchased Reaction Biology Corporation (Kinase HotSpot)
Summary of the method: as §1

LATS1 = biological target: T10, LATS1 (Homo sapiens, UniProt O95835)
T10 construct: purchased Reaction Biology Corporation (Kinase HotSpot)
T10 sequence (O95835 whole entry): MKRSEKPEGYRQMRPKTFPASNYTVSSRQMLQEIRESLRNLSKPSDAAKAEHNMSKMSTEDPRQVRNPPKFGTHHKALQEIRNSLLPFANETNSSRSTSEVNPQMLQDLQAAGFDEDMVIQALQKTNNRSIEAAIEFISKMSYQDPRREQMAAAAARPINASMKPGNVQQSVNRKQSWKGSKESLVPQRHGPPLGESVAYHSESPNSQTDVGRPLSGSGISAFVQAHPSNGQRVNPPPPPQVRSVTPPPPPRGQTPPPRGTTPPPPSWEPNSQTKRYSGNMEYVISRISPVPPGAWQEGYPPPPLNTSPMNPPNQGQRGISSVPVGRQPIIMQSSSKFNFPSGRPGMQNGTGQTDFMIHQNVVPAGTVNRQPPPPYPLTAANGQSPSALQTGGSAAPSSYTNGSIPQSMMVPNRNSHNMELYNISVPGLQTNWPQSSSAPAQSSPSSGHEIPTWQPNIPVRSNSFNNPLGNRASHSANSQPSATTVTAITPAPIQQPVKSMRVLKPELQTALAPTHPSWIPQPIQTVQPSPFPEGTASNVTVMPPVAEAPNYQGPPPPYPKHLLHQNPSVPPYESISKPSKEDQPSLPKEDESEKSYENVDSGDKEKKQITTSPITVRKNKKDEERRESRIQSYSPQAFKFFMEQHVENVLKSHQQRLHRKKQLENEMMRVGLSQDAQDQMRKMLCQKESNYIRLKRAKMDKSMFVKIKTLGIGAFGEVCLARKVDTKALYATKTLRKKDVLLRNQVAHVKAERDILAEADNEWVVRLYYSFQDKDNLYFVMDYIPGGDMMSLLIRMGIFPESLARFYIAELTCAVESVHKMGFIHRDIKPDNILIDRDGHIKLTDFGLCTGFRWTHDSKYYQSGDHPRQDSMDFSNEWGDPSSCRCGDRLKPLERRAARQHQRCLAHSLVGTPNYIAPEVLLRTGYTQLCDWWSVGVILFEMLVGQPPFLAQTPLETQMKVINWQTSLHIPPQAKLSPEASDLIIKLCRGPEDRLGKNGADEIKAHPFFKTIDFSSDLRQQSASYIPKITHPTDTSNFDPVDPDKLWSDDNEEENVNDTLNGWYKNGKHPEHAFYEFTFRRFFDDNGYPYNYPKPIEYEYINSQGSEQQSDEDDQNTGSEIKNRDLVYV
Summary of the method: as §1

MARK1 = biological target: T11, MARK1 (Homo sapiens, UniProt Q9P0L2)
T11 construct: purchased Reaction Biology Corporation (Kinase HotSpot)
Summary of the method: as §1

MNK2 = biological target: T12, MNK2 (Homo sapiens, UniProt Q9HBH9)
T12 construct: purchased Reaction Biology Corporation (Kinase HotSpot)
Summary of the method: as §1

NEK2 = biological target: T13, NEK2 (Homo sapiens, UniProt P51955)
T13 construct: purchased Reaction Biology Corporation (Kinase HotSpot)
Summary of the method: as §1

NEK6 = biological target: T14, NEK6 (Homo sapiens, UniProt Q9HC98)
T14 construct: purchased Reaction Biology Corporation (Kinase HotSpot)
Summary of the method: as §1

NEK9 = biological target: T15, NEK9 (Homo sapiens, UniProt Q8TD19)
T15 construct: purchased Reaction Biology Corporation (Kinase HotSpot)
T15 sequence (Q8TD19 whole entry): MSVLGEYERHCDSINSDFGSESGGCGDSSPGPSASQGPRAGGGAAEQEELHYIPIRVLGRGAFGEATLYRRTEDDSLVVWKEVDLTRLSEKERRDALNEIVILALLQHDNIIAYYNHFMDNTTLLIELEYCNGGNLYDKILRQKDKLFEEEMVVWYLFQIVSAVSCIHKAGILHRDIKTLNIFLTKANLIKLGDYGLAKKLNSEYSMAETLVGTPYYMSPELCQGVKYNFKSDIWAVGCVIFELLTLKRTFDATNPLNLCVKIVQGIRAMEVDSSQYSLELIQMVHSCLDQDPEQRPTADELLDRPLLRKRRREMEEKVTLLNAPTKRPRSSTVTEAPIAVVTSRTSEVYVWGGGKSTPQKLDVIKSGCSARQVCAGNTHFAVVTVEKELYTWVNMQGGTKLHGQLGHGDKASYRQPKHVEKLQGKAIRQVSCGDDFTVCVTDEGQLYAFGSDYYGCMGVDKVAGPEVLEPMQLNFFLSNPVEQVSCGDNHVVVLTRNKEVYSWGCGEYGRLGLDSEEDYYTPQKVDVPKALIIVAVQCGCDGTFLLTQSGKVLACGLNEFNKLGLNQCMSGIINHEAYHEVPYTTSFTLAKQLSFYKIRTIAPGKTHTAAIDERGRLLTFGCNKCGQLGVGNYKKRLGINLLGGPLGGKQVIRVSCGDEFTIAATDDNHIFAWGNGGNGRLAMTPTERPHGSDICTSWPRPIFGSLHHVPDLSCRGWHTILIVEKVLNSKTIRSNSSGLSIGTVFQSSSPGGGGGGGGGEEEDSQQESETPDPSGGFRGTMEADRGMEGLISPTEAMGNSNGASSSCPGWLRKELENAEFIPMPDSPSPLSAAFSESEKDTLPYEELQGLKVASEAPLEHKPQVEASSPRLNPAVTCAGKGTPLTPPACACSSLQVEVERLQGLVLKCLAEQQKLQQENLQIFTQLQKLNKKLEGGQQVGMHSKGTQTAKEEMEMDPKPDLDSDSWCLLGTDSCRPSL
Summary of the method: as §1

NLK = biological target: T16, NLK (Homo sapiens, UniProt Q9UBE8)
T16 construct: purchased Reaction Biology Corporation (Kinase HotSpot)
Summary of the method: as §1

PAK5 = biological target: T17, PAK5 (Homo sapiens, UniProt Q9P286)
T17 construct: purchased Reaction Biology Corporation (Kinase HotSpot)
Summary of the method: as §1

PLK1 = biological target: T18, PLK1 (Homo sapiens, UniProt P53350)
T18 construct: purchased Reaction Biology Corporation (Kinase HotSpot)
Summary of the method: as §1

RIPK3 = biological target: T19, RIPK3 (Homo sapiens, UniProt Q9Y572)
T19 construct: purchased Reaction Biology Corporation (Kinase HotSpot)
T19 sequence (Q9Y572 whole entry): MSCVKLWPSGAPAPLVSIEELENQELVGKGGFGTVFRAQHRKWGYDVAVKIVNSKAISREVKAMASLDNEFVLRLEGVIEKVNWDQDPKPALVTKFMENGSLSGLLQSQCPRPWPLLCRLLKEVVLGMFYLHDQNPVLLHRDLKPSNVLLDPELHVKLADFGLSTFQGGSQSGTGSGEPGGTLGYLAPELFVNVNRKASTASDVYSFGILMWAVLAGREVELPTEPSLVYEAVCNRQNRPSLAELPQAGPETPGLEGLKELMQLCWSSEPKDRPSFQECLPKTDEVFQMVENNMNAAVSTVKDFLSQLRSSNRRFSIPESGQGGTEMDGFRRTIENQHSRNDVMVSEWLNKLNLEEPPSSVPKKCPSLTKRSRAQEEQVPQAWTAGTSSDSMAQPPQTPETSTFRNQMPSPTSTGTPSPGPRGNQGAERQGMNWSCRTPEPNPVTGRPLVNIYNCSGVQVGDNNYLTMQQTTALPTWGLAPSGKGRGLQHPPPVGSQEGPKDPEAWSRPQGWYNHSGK
Summary of the method: as §1

SGK1 = biological target: T20, SGK1 (Homo sapiens, UniProt O00141)
T20 construct: purchased Reaction Biology Corporation (Kinase HotSpot)
Summary of the method: as §1

STK25/YSK1 = biological target: T21, STK25/YSK1 (Homo sapiens, UniProt O00506)
T21 construct: purchased Reaction Biology Corporation (Kinase HotSpot)
Summary of the method: as §1

STK38/NDR1 = biological target: T22, STK38/NDR1 (Homo sapiens, UniProt Q15208)
T22 construct: purchased Reaction Biology Corporation (Kinase HotSpot)
Summary of the method: as §1

STK39/STLK3 = biological target: T23, STK39/STLK3 (Homo sapiens, UniProt Q9UEW8)
T23 construct: purchased Reaction Biology Corporation (Kinase HotSpot)
Summary of the method: as §1

SYK = biological target: T24, SYK (Homo sapiens, UniProt P43405)
T24 construct: purchased Reaction Biology Corporation (Kinase HotSpot)
Summary of the method: as §1

TIE2/TEK = biological target: T25, TIE2/TEK (Homo sapiens, UniProt Q02763)
T25 construct: purchased Reaction Biology Corporation (Kinase HotSpot)
Summary of the method: as §1

TNIK = biological target: T26, TNIK (Homo sapiens, UniProt Q9UKE5)
T26 construct: purchased Reaction Biology Corporation (Kinase HotSpot)
T26 sequence (Q9UKE5 whole entry): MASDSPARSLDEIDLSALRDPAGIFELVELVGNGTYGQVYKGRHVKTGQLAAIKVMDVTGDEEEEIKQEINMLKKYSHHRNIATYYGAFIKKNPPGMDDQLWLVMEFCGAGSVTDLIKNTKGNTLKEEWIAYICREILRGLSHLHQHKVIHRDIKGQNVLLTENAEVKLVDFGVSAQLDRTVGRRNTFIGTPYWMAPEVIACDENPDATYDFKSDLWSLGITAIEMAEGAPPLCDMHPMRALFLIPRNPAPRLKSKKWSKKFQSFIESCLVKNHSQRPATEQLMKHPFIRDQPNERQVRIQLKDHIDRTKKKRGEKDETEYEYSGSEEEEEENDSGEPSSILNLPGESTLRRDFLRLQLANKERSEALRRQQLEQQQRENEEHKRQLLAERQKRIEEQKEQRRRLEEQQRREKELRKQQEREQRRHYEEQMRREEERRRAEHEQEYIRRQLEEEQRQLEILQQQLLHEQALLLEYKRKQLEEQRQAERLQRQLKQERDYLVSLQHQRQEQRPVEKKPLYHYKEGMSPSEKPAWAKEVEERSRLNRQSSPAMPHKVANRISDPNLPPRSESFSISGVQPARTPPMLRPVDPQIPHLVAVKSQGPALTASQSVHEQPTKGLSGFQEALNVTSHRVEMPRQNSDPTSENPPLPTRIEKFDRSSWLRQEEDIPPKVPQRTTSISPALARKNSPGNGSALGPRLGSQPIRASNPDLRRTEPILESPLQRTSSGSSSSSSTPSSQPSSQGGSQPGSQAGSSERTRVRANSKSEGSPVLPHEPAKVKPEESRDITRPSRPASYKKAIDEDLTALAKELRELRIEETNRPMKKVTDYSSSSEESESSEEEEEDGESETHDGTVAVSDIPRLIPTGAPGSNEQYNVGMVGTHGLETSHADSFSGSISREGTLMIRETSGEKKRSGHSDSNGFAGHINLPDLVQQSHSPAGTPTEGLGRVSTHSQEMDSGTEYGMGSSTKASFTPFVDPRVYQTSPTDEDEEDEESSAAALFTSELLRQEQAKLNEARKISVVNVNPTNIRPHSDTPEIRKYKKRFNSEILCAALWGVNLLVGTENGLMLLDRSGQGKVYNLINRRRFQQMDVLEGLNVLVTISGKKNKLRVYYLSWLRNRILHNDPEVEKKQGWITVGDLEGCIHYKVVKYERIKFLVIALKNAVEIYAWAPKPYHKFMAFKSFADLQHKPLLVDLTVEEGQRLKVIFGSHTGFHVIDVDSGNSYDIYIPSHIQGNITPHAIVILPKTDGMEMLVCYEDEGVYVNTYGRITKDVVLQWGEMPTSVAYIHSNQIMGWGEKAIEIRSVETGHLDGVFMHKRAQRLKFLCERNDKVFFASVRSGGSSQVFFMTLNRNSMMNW
Summary of the method: as §1

TRKC = biological target: T27, TRKC (Homo sapiens, UniProt Q16288)
T27 construct: purchased Reaction Biology Corporation (contract assay)
Summary of the method: as §1

ULK3 = biological target: T28, ULK3 (Homo sapiens, UniProt Q6PHR2)
T28 construct: purchased Reaction Biology Corporation (Kinase HotSpot)
Summary of the method: as §1

WNK3 = biological target: T29, WNK3 (Homo sapiens, UniProt Q9BYP7)
T29 construct: purchased Reaction Biology Corporation (Kinase HotSpot)
Summary of the method: as §1

c-Kit = biological target: T30, c-Kit (Homo sapiens, UniProt P10721)
T30 construct: purchased Reaction Biology Corporation (Kinase HotSpot)
T30 sequence (P10721 26-976): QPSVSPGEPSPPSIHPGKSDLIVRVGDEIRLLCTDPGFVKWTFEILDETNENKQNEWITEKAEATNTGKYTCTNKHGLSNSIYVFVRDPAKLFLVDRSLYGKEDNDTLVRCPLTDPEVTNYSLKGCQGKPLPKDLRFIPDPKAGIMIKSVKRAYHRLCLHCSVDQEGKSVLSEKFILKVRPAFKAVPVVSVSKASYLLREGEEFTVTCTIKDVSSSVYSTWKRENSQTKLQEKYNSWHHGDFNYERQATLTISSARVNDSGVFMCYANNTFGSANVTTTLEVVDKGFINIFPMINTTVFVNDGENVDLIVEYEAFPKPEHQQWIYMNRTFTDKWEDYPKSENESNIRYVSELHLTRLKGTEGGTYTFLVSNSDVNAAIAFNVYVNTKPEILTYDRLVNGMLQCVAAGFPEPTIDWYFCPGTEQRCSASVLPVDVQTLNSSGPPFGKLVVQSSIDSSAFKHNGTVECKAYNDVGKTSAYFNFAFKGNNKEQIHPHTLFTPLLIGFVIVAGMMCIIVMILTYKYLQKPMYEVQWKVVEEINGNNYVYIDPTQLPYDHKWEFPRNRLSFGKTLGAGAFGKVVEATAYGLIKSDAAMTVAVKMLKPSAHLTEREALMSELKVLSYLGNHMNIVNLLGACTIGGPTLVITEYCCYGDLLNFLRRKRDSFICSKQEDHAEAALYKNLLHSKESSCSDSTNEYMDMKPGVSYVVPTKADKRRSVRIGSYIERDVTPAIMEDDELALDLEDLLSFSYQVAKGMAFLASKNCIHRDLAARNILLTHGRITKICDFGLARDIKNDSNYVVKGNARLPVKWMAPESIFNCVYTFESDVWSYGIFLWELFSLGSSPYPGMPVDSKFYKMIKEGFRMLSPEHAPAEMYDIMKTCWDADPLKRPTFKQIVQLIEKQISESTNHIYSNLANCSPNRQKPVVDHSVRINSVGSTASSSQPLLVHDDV
Summary of the method: as §1

Question: With `Cc1cnc(N[C@H]2CC[C@H](N)CC2)nc1-c1cnc2ccc(-c3ccccc3)cn12` [CDDD11-8] as the molecule, how does the remaining activity at 1 µM (ALK1/ACVRL1) read?
Answer: 96.9%

Question: What about the remaining activity at 1 µM (ALK5/TGFBR1) of the same molecule?
Answer: 93.9%

Question: What about the remaining activity at 1 µM (ALK6/BMPR1B) of the same molecule?
Answer: 105%

Question: And the remaining activity at 1 µM (CDK3/cyclin E)?
Answer: 77.9%

Question: And the remaining activity at 1 µM (CDK6/cyclin D1)?
Answer: 80.7%

Question: And the remaining activity at 1 µM (DYRK1B)?
Answer: 22.2%

Question: What about the remaining activity at 1 µM (Haspin) of the same molecule?
Answer: 65.1%

Question: And the remaining activity at 1 µM (IRAK4)?
Answer: 59.2%

Question: And the remaining activity at 1 µM (KDR/VEGFR2)?
Answer: 86.9%

Question: And the remaining activity at 1 µM (LATS1)?
Answer: 57.4%

Question: And the remaining activity at 1 µM (MARK1)?
Answer: 46.6%

Question: And the remaining activity at 1 µM (MNK2)?
Answer: 83.5%

Question: And the remaining activity at 1 µM (NEK2)?
Answer: 90.7%

Question: And the remaining activity at 1 µM (NEK6)?
Answer: 96.2%

Question: And the remaining activity at 1 µM (NEK9)?
Answer: 84.7%

Question: What about the remaining activity at 1 µM (NLK) of the same molecule?
Answer: 83.4%

Question: What about the remaining activity at 1 µM (PAK5) of the same molecule?
Answer: 86.2%

Question: What about the remaining activity at 1 µM (PLK1) of the same molecule?
Answer: 97.3%

Question: What about the remaining activity at 1 µM (RIPK3) of the same molecule?
Answer: 97.5%

Question: What about the remaining activity at 1 µM (SGK1) of the same molecule?
Answer: 95.4%

Question: And the remaining activity at 1 µM (STK25/YSK1)?
Answer: 97.2%

Question: What about the remaining activity at 1 µM (STK38/NDR1) of the same molecule?
Answer: 93.3%

Question: What about the remaining activity at 1 µM (STK39/STLK3) of the same molecule?
Answer: 45.7%

Question: And the remaining activity at 1 µM (SYK)?
Answer: 13.4%

Question: What about the remaining activity at 1 µM (TIE2/TEK) of the same molecule?
Answer: 61.2%

Question: What about the remaining activity at 1 µM (TNIK) of the same molecule?
Answer: 4.38%

Question: And the remaining activity at 1 µM (TRKC)?
Answer: 1.95%

Question: And the remaining activity at 1 µM (ULK3)?
Answer: 82.8%

Question: And the remaining activity at 1 µM (WNK3)?
Answer: 84%

Question: And the remaining activity at 1 µM (c-Kit)?
Answer: 97.5%
